Assay results as given in patent publication US20050048508A1, “Trehalose receptor and method for detecting trehalose with the same” (KABUSHIKI KAISHA HAYASHIBARA SEIBUTSU KAGAKU KENKYUJO, priority 2002, published 2005).
Residues, ends and D or L forms follow the SMILES beside them.

Molecular target: T1, T1R3 with G protein α-subunits (α15 and α16/Z chimeric protein) (Mus musculus, UniProt Q925D8, I706N)
T1 construct: expressed in transfected cells; host or cells: 293 cells, RCB 1637 (human embryonic kidney)
T1 sequence (Q925D8 21-858 I706N): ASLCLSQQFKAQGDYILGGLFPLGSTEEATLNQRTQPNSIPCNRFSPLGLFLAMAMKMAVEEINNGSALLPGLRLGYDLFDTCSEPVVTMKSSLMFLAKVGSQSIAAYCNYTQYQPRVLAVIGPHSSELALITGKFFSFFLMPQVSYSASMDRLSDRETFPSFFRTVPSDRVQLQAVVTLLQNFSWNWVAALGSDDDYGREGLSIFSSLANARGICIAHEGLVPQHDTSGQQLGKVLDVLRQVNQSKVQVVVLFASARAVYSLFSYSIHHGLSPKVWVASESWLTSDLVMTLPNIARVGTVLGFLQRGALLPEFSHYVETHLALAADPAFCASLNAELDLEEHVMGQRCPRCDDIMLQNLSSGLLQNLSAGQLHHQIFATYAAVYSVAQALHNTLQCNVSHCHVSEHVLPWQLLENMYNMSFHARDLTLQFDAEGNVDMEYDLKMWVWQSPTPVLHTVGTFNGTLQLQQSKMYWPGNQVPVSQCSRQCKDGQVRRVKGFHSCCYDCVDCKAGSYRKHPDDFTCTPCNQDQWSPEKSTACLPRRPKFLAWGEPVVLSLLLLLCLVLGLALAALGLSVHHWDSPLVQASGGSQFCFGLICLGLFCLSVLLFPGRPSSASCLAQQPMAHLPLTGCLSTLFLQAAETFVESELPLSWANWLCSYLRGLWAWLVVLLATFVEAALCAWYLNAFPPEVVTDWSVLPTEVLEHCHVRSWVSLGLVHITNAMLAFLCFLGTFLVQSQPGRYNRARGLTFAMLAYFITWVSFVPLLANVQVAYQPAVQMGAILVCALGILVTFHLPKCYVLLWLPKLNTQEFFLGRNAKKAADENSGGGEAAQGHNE
Assay: Intracellular calcium ion assay, 293 cells coexpressing G protein α-subunits and T1R3 (trehalose receptor)
Assay type: cell-based
Conditions: Table 4: sweet taste substances on cells coexpressing G protein α-subunits and T1R3, measured similarly as in Example 4
Protocol: The coexpression vector for the G protein α-subunit α15 and the G protein α16/Z chimeric protein (hereinafter designated as “G protein α-subunits”) obtained in Example 1-3 was gene transferred to 293 cells, RCB 1637, a human embryonic kidney cell line, available from the Riken Bioresource Center, Ibaraki, Japan, by conventional lipofection. The gene transferred cells were suspended in Dulbecco's Modified Eagle's Medium (D-MEM) supplemented with 1 mg/L of “PUROMYCIN”, a trade mane of puromycin commercialized by Edge Biosystems, MD, USA, and 10% (v/v) of fetal calf serum to give a cell density of 2×10^6 cells/ml and cultured in a plastic petri dish for cell culture. After 10 to 14 days of incubation, a puromycin-resistant cell colony was collected and confirmed its production of the G protein α-subunit proteins with an index of their mRNA level by conventional RT-PCR. Thus, a cell line capable of expressing the G protein α-subunit proteins was established. To the cells were gene transferred an expression vector for the sweet taste receptor protein T1R1, T1R2, or T1R3 in Example 2-2; or a coexpression vector for a pair of T1R1 and T1R2, T1R1 and T1R3, or T1R2 and T1R3 by conventional lipofection. The resulting cells were suspended in D-MEM supplemented with 1 mg/L of “PUROMYCIN”, 500 mg/L of “GENETICIN”, and 10% (v/v) of fetal calf serum and cultured in a plastic petri dish for cell culture. After 10 to 14 days of incubation, a cell colony resistant to both of the above drugs was collected and confirmed that the transferred gene had been expressed intracellularly as expected by conventional RT-PCR at a mRNA level. Thus, a cell, which had coexpressed the desired G proteins and sweet taste receptors, was obtained. As a control, a cell, into which an expression vector with no G protein α-subunit protein gene or sweet taste receptor protein gene, was prepared and used.
The captioned reactivity test was conducted according to a conventional intracellular calcium ion assay: 293 Cells prepared in Example 3, capable of coexpressing the G protein α-subunits and the sweet taste receptor(s), were cultured in a plastic petri dish for cell culture until reaching its confluent phase. Thereafter, the cells were detached from the inner surface of the petri dish with a 0.05% (v/v) trypsin solution and a 0.53 mM EDTA solution, suspended in D-MEM supplemented with 10% (v/v) fetal calf serum to give a cell density of 1×10^6 cells/ml, and allowed to intake “FLUO-4. AM”, a reagent for detecting intracellular calcium ion commercialized by Molecular Probes Inc., Ore., USA, by adding to the cell suspension to give a final concentration of 2 μM and incubating the cells at 37 ° C. for 30 to 90 min. The resulting cells were washed with a buffer for detecting calcium ion, which contained 10 mM HEPES (pH 7.4), 130 mM sodium chloride, 5.4 mM potassium chloride, 2 mM calcium chloride, 1 mM magnesium chloride, 5.5 mM D-glucose, 0.1% (v/v) calf serum albumin, and 1 mM sodium pyruvate to remove the reagent remained extracellularly; suspended in a fresh preparation of the same buffer to give a cell density of 2.67 ×10^7 cells/ml; filtered with a membrane with a pore size of 100 μm mesh; and allowed to stand at 25° C. for 30 min. Two milliliters of the resultant cell suspension was injected into a glass cuvette, commercialized by Hitachi, Ltd., Tokyo, Japan, and analyzed on “HITACHI 650-40”, a fluorescence spectrophotometer commercialized by Hitachi, Ltd., Tokyo, Japan. […]

Row | SMILES | Influx of calcium ion
1 | OC[C@H]1O[C@H](O[C@]2(CCl)O[C@H](CCl)[C@@H](O)[C@@H]2O)[C@H](O)[C@@H](O)[C@H]1Cl [Sucralose] | Negative
2 | OC[C@@H](O)[C@@H](O[C@H]1O[C@H](CO)[C@@H](O)[C@H](O)[C@H]1O)[C@H](O)[C@@H](O)CO [Maltitol] | Negative
3 | O=C(CO)[C@@H](O)[C@H](O)[C@H](O)CO [Fructose] | Negative
4 | OC[C@@H](O)[C@@H](O)CO [Erythritol] | Negative
5 | C[C@H](N)C(=O)O [Alanine] | Negative

More lines, now with the values ahead:

Row | Influx of calcium ion | SMILES
6 | Negative | NCC(=O)O [L-Glycine]
7 | Negative | COC(=O)[C@H](Cc1ccccc1)NC(=O)[C@@H](N)CC(=O)O [Aspartame] (HELM PEPTIDE1{D.F.[CO[*:1]]}$$$$V2.0)
8 | Negative | O=C[C@H](O)[C@@H](O)[C@@H](O)[C@H](O)CO [Galactose]
